Experimental data from patent US6949255B2, “Inhibitory chemical formulation with preservative system” (priority 2000, dated 2005).

Tests used:
VSV = type: cell-based, vesicular stomatitis virus
[1] = system: vesicular stomatitis virus (VSV); type: cell-based
HIV = details: among prostitutes; Kreiss et al., JAMA 1992; cited from earlier work

Molecule	inhibition of VSV (VSV)	concentrations at which toxicity activity was absent (L-929 cells; mouse)	killing of L-929 cells (toxicity titer) (L-929 cells; mouse)	concentrations at which inhibitory activity was absent (VSV)	L-929 toxicity titer (L-929 cells; mouse)	killing of L-929 cells (L-929 cells)	inhibition of multiplication of VSV [1]	risk of HIV infection with use (HIV)
COC(=O)c1ccc(O)cc1 [Methylparaben]	approximately 30 fold	< 0.2%	greater than 300 fold	–	–	–	–	–
CCCOC(=O)c1ccc(O)cc1 [Proplyparaben, propylparaben]	approximately 55 fold	< 0.004%	–	< 0.004%	approximately 15 fold	–	–	–
CC(O)CO (centres unmarked) [Propylene G, propylene glycol]	almost no inhibition	–	–	–	–	almost no inhibition or killing at all	–	–
OCC(O)CO [glycerol]	greater than 10 fold	below 8%	–	below 8%	–	–	–	–
Nonoxynol-9 [Nonoxynol-9®]	–	–	–	–	–	–	almost identical degree of inhibition	increased risk of HIV infection
